Laboratory results published in ChEMBL document CHEMBL1687756 (Antimicrob Agents Chemother, 2010).

What was measured:
[1] = Cmax in Beagle dog at 5 mg/kg administered intramuscularly after 176 days; type: ADME, organism-based, Canis lupus familiaris; design: dose 5 mg/kg, route intramuscular; conditions: in vivo, im
[2] = Tmax in Beagle dog at 5 mg/kg administered intramuscularly after 176 days; type: ADME, organism-based, Canis lupus familiaris; design: dose 5 mg/kg, route intramuscular; conditions: in vivo, im
[3] = AUC (0 to last) in Beagle dog at 5 mg/kg administered intramuscularly after 176 days; type: ADME, organism-based, Canis lupus familiaris; design: dose 5 mg/kg, route intramuscular, time 0 - last; conditions: plasma, im
[4] = Absolute bioavailability in Beagle […] at 5 mg/kg administered intramuscularly after 176 days; type: ADME, organism-based, Canis lupus familiaris; conditions: in vivo, im
[5] = Cmax in Beagle dog at 5 mg/kg administered intramuscularly after 184 days; type: ADME, organism-based, Canis lupus familiaris; design: dose 5 mg/kg, route intramuscular; conditions: in vivo, im
[6] = AUC (0 to last) in Beagle dog at 5 mg/kg administered intramuscularly after 184 days; type: ADME, organism-based, Canis lupus familiaris; design: dose 5 mg/kg, route intramuscular, time 0 - last; conditions: plasma, im
[7] = Cmax in Beagle dog at 5 mg/kg, sc after 184 days; type: ADME, organism-based, Canis lupus familiaris; design: dose 5 mg/kg, route subcutaneous; conditions: in vivo
[8] = AUC (0 to last) in Beagle dog at 5 mg/kg, sc after 184 days; type: ADME, organism-based, Canis lupus familiaris; design: time 0 - last, dose 5 mg/kg, route subcutaneous; conditions: plasma
[9] = Drug level in Beagle dog muscle at injected site at 5 mg/kg administered intramuscularly after 3 months; type: ADME, organism-based, Canis lupus familiaris, Muscle tissue; design: dose 5 mg/kg, route intramuscular; conditions: im, read-out: Drug uptake
[10] = Drug level in Beagle dog muscle at injected site at 5 mg/kg administered intramuscularly after 6 months; type: ADME, organism-based, Canis lupus familiaris, Muscle tissue; design: dose 5 mg/kg, route intramuscular; conditions: im, read-out: Drug uptake
[11] = Drug level in Beagle dog muscle at non-injected site at 5 mg/kg, sc after 3 months; type: ADME, organism-based, Canis lupus familiaris, Muscle tissue; design: dose 5 mg/kg, route subcutaneous; conditions: read-out: Drug uptake
[12] = Drug level in Beagle dog skin at injected site at 5 mg/kg, sc after 3 months; type: ADME, organism-based, Canis lupus familiaris, Zone of skin; design: dose 5 mg/kg, route subcutaneous; conditions: read-out: Drug uptake
[13] = Drug level in Beagle dog skin at injected site at 5 mg/kg, sc after 6 months; type: ADME, organism-based, Canis lupus familiaris, Zone of skin; design: dose 5 mg/kg, route subcutaneous; conditions: read-out: Drug uptake
[14] = Drug level in Beagle dog skin at non-injected site at 5 mg/kg administered intramuscularly after 6 months; type: ADME, organism-based, Canis lupus familiaris, Zone of skin; design: dose 5 mg/kg, route intramuscular; conditions: im, read-out: Drug uptake
[15] = Plasma concentration in male Beagle dog at 400 mg/kg administered intramuscularly after 3 months; type: ADME, organism-based, Canis lupus familiaris; design: dose 400 mg/kg, route intramuscular; conditions: im
[16] = Drug level in male Beagle dog spleen at 200 mg/kg, sc after 3 months; type: ADME, organism-based, Canis lupus familiaris; design: dose 200 mg/kg, route subcutaneous; conditions: read-out: Drug uptake
[17] = Drug level in male Beagle dog spleen at 400 mg/kg, sc after 3 months; type: ADME, organism-based, Canis lupus familiaris; design: dose 400 mg/kg, route subcutaneous; conditions: read-out: Drug uptake
[18] = Drug level in male Beagle dog spleen at 400 mg/kg administered intramuscularly after 3 months; type: ADME, organism-based, Canis lupus familiaris; design: dose 400 mg/kg, route intramuscular; conditions: im, read-out: Drug uptake
[19] = Drug level in male Beagle dog thymus at 200 mg/kg administered intramuscularly after 3 months; type: ADME, organism-based, Canis lupus familiaris; design: dose 200 mg/kg, route intramuscular; conditions: im, read-out: Drug uptake
[20] = Plasma concentration in female Beagle dog at 200 mg/kg, sc after 3 months; type: ADME, organism-based, Canis lupus familiaris; design: dose 200 mg/kg, route subcutaneous
[21] = Plasma concentration in female Beagle dog at 200 mg/kg administered intramuscularly after 3 months; type: ADME, organism-based, Canis lupus familiaris; design: dose 200 mg/kg, route intramuscular; conditions: im
[22] = Drug level in female Beagle dog spleen at 400 mg/kg, sc after 3 months; type: ADME, organism-based, Canis lupus familiaris; design: dose 400 mg/kg, route subcutaneous; conditions: read-out: Drug uptake
[23] = Ratio of drug level in spleen to plasma in male Beagle dog at 400 mg/kg, sc after 1 month; type: ADME, organism-based, Canis lupus familiaris; design: dose 400 mg/kg, route subcutaneous
[24] = Ratio of drug level in spleen to plasma in male Beagle dog at 200 mg/kg administered intramuscularly after 1 month; type: ADME, organism-based, Canis lupus familiaris; design: dose 200 mg/kg, route intramuscular; conditions: im
[25] = Ratio of drug level in spleen to plasma in male Beagle dog at 400 mg/kg administered intramuscularly after 1 month; type: ADME, organism-based, Canis lupus familiaris; design: dose 400 mg/kg, route intramuscular; conditions: im
[26] = Ratio of drug level in thymus to plasma in male Beagle dog at 400 mg/kg, sc after 1 month; type: ADME, organism-based, Canis lupus familiaris; design: dose 400 mg/kg, route subcutaneous
[27] = Ratio of drug level in thymus to plasma in male Beagle dog at 200 mg/kg administered intramuscularly after 1 month; type: ADME, organism-based, Canis lupus familiaris; design: dose 200 mg/kg, route intramuscular; conditions: im
[28] = Ratio of drug level in thymus to plasma in male Beagle dog at 400 mg/kg administered intramuscularly after 1 month; type: ADME, organism-based, Canis lupus familiaris; design: dose 400 mg/kg, route intramuscular; conditions: im

Cc1cc(/C=C/C#N)cc(C)c1Nc1ccnc(Nc2ccc(C#N)cc2)n1 [RILPIVIRINE]
Cmax [1]: 619 ng/mL | Tmax [2]: 30 min | AUC(0-t) at 4224 h [3]: 23200 ng·h/mL | bioavailability [4]: 102% | Cmax [5]: 173 ng/mL | AUC(0-t) at 4416 h [6]: 39400 ng·h/mL | Cmax [7]: 38 ng/mL | AUC(0-t) at 4416 h [8]: 24400 ng·h/mL | concentration at 2191.5 h [9]: 142000 ng/g | concentration at 4383 h [10]: 11500 ng/g | concentration at 2191.5 h [11]: 18.5 ng/g | concentration at 2191.5 h [12]: 223000 ng/g | concentration at 4383 h [13]: 143000 ng/g | concentration at 4383 h [14]: 6.7 ng/g | concentration at 2191.5 h [15]: 22.1 ng/mL | concentration at 2191.5 h [16]: 36.2 ng/g | concentration at 2191.5 h [17]: 11.3 ng/g | concentration at 2191.5 h [18]: 63.5 ng/g | concentration at 2191.5 h [19]: 34.4 ng/g | concentration at 2191.5 h [20]: 26.8 ng/mL | concentration at 2191.5 h [21]: 10.1 ng/mL | concentration at 2191.5 h [22]: 67.5 ng/g | Kp at 730.5 h [23]: 2.9 | Kp at 730.5 h [24]: 1.8 | Kp at 730.5 h [25]: 2.2 | Kp at 730.5 h [26]: 2.9 | Kp at 730.5 h [27]: 3.2 | Kp at 730.5 h [28]: 4
